Experimental data published in PubChem BioAssay AID1324 (NMMLSC, 2008).
Activity calls are given as the source filed them. How the calls were made is not given here.

Target: glutathione S-transferase (GST-GSH binding)
Assay: GST–glutathione interaction disruption – biochemical, multiplex beads, flow cytometry, HPSMTB buffer, profiling panel (AID 1324);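 further: glutathione beads loaded with GST-green fluorescent protein and no fluorescent Bim peptide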
Conditions: multiplex bead flow cytometry, MCF

| SMILES | EC50 |
| --- | --- |
| COc1cc2[nH]c(=S)nc(NCCc3ccc(S(N)(=O)=O)cc3)c2cc1OC | 3.63 µM |
| COCCCn1c(N)c(C(=O)Nc2sc3c(c2C(=O)OC)CCCC3)c2nc3ccccc3nc21 | 2.55 µM |
| CCOCCCNc1nc(=S)[nH]c2cc(OC)c(OC)cc12 | inactive |
| COc1cc(OC)c([N+](=O)[O-])cc1/C=N/NC(=O)c1ccncc1 | inactive |

Same assay, conditions: multiplex bead flow cytometry, MCF, hits give high values, concentration not given here

| SMILES | percent span inhibition |
| --- | --- |
| COc1ccc(Cc2c(O)nc(SC)n(C(C)=O)c2=O)cc1 | inactive |
| COc1cccc(NC(=O)CSc2nncn2N)c1 | inactive |
| COc1cc(/C=C2\SC(=S)NC2=O)ccc1OS(=O)(=O)c1ccccc1 | inactive |
| CC1CC2=C(NC(=S)NC2c2ccccc2F)/C(=C/c2ccccc2F)C1 (centres undefined) | inactive |
| CCOc1ccc(-n2cc(-c3ccc(OC)c(OC)c3)[nH]c2=S)cc1 | inactive |
| Cc1sc(NC(=O)Cn2cnnn2)nc1-c1ccc(Cl)cc1 | inactive |
| COc1ccc2c3c(cccc13)N(C)N=C2C | inactive |
| O=C(Nc1cccc(-c2ccc3nncn3n2)c1)c1ccco1 | inactive |
| CCOc1cc(CNc2ccc(N3CCCCC3)cc2)cc(Br)c1OCC(=O)NC(C)(C)C | inactive |
| O=C(CSc1ccc2nnc(-c3ccccn3)n2n1)Nc1nccs1 | inactive |
| CCOC(=O)C1(CC/C(C)=N\NC(N)=O)CC(C)(C)OC1=O (centres undefined) | inactive |
| Cc1cc(C)cc(-n2c(C)nc3cc(C(=O)O)ccc32)c1 | inactive |
| CCCn1c(SCC(=O)Nc2ccccc2-c2ccccc2)nnc1-c1ccoc1C | inactive |
| CCOc1cc(/C=C2/N=C(C)C(C(=O)OC)=C2O)ccc1O | inactive |
| NCC(c1ccccc1)c1c[nH]c2ccccc12 (centres undefined) | inactive |
| COc1c(C)cc(Br)cc1C(=O)Nc1ccc(S(N)(=O)=O)cc1 | inactive |
| O=C(CCc1ccccc1)N1CCN(c2ccccn2)CC1 | inactive |
| CCOCCCn1c(N)c(C(=O)Nc2sc3c(c2C(=O)OC)CCCC3)c2nc3ccccc3nc21 | inactive |
| CCN1/C(=C/c2ccc3cc(C)ccc3[n+]2CC)Sc2cc(C)c(C)cc21 | inactive |
| COc1ccc(OC)c(NC(=O)COC(=O)c2cc3c(s2)CCC3)c1 | inactive |
| CCc1cccc(NC(=O)COc2ccccc2)c1 | inactive |
| CCOc1cc(NC(=S)NC)c(OCC)cc1NC(=O)c1ccc(OC)cc1 | inactive |
| O=C1N/C(=C/c2cccn2-c2ccccc2)C(=O)N1Cc1ccc(F)cc1 | inactive |
| COc1ccccc1NC(=O)CSc1nnc(-c2ccco2)n1Cc1ccco1 | inactive |

| SMILES | percent span inhibition |
| --- | --- |
| CCN1CCN(CC(=O)c2c[nH]c3ccc(C)cc23)CC1 | inactive |
| Cc1onc(-c2ccccc2Cl)c1C(=O)Nc1nn[nH]n1 | inactive |
| CN(CCO)c1cc(Sc2nc3ccccc3s2)c2nonc2c1[N+](=O)[O-] | inactive |
| Cc1ccc(CNc2ccc3c(c2)OCO3)c(C)c1 | inactive |
| CC(C)(C)NC(=O)COc1ccc(CNc2ccc3[nH]c(=O)[nH]c3c2)cc1 | inactive |
| CC(C)C(=O)NC(c1ccccc1)c1cc([N+](=O)[O-])c2cccnc2c1O (centres undefined) | inactive |
| CC(=O)NC(=O)Nc1sc(=S)n(C)c1C | inactive |
| Cc1ccc(C(=O)C(C(=O)/C=C/c2ccccc2)=C2SCCCS2)cc1 | inactive |
| O=C(O)C1=C[C@H](C2CC2)C[C@H](OCCCCO)O1 | inactive |
| Cc1cc(-c2nnc3n2N=C(c2ccc(-c4ccccc4)cc2)CS3)n[nH]1 | inactive |
| Cc1cc(N2CCN(C)CC2)nc2ccc(NC(=S)N3CCC4(CC3)OCCO4)cc12 | inactive |
| CCCCNC(=O)c1ccc2nc(-c3ccco3)c(-c3ccco3)nc2c1 | inactive |
| Cc1cc(C)c(S(=O)(=O)/N=C2/C=C(SCC(=O)O)C(=O)c3ccccc32)cc1C | inactive |
| CC(C(=O)Nc1cc([N+](=O)[O-])ccc1Cl)N1CCN(c2ccc(O)cc2)CC1 (centres undefined) | inactive |
| COCCn1nnnc1CN(Cc1ccco1)Cc1cc2cc3c(cc2[nH]c1=O)OCO3 | inactive |
| CCCc1nnc2n1N=C(c1ccc(-c3cc(Cl)ccc3Cl)o1)CS2 | inactive |
| Cc1cc(C)c(C)c(S(=O)(=O)N2CCN(CC(=O)NC(=O)NCc3ccccc3)CC2)c1C | inactive |
| CCN1CCN(c2ccc(NC(=O)c3ccc4c(c3)[nH]c(=O)n4Cc3ccc(OC)cc3)cc2)CC1 | inactive |
| CNC(=S)N(Cc1cccs1)Cc1cc2ccc(OC)cc2[nH]c1=O | inactive |
| COc1ccc(N2C(=O)/C(=C/c3cccs3)NC2=S)cc1 | inactive |
| Cc1ccc(/C=N/N(C)C2=NS(=O)(=O)c3ccccc32)o1 | inactive |
| O=C(O)CC1S/C(=N/N=C/C=C/c2ccccc2[N+](=O)[O-])NC1=O (centres undefined) | inactive |
| COc1ccc(C2CC(=O)C3=C(C2)Nc2ccccc2NC3c2coc3ccccc3c2=O)cc1OC (centres undefined) | inactive |
| O=C(/C=C\c1ccc(-c2ccccc2)o1)c1ccccc1 | inactive |

| SMILES | percent span inhibition |
| --- | --- |
| O=C(Nc1nnc(SCc2ccccn2)s1)C1CC(=O)N(c2ccccc2)C1 (centres undefined) | inactive |
| CCOc1ccc(CNc2ccc(N3CCCC3)cc2)cc1 | inactive |
| Cc1ccc(-n2c(CSc3nc(C)cc(C)n3)nnc2SCC(=O)NCc2ccco2)cc1 | inactive |
| COc1cc(C2Nc3cccc4cccc(c34)N2)ccc1OC(C)=O | inactive |
| C=CCn1c(SCC(=O)Nc2ccc3c(c2)OCO3)nnc1-c1cc(Br)ccc1O | inactive |
| CCSc1ncnc2sc(C)c(C)c12 | inactive |
| CCc1ccc(NC(=O)CC2NCCNC2=O)cc1 (centres undefined) | inactive |
| COc1ccc2nc(NC(=O)c3ccc(-c4cccc([N+](=O)[O-])c4)o3)sc2c1 | inactive |
| COc1cc2nc(=S)n(CCCN3CCOCC3)c(N)c2cc1OC | inactive |
| CN1CCN(c2ccccc2N)CC1 | inactive |
| CC(C)=C1C(=O)NN(c2ccc(C)c(Cl)c2)C1=O | inactive |
| O=C(/C=C/c1c(F)cccc1Cl)Nc1ccncc1 | inactive |
| COc1ccc(N2C(=O)C(Cl)=C(Nc3ccccc3O)C2=O)cc1 | inactive |
| COc1cc(N=c2ssnc2Cl)cc(OC)c1OC | inactive |
| CCCOc1ccc(-c2c(C(=O)N/N=C/c3ccc(OC)cc3)nnn2-c2nonc2N)cc1 | inactive |
| Cc1cc2nn(-c3cccc4ccccc34)nc2cc1N | inactive |
| COC(=O)c1cc(OC)c(OC)cc1NC(=O)Nc1cccc(C(C)=O)c1 | inactive |
| CCOc1ccc(C2=Nn3c(nnc3-c3ccccn3)SC2)cc1 | inactive |
| Cc1ccc(NC(=O)c2cc(S(=O)(=O)NCCC3=CCCCC3)ccc2F)cc1F | inactive |
| O=C(NCc1ccccc1)c1ccc2nc(-c3ccco3)c(-c3ccco3)nc2c1 | inactive |
| CCN1CCN(c2cc(C)c3cc(NC(=S)N4CC(C)CC(C)C4)ccc3n2)CC1 (centres undefined) | inactive |
| O=C(O)CC/C(=C\c1cc([N+](=O)[O-])ccc1Cl)c1nc2ccccc2s1 | inactive |
| CCOc1cc(S(=O)(=O)Nc2ccccn2)ccc1F | inactive |
| CC(C)(C)c1nc(NCCN2CCOCC2)c2nnn(Cc3ccccc3Cl)c2n1 | inactive |

| SMILES | percent span inhibition |
| --- | --- |
| O=C1Nc2ccc([N+](=O)[O-])cc2OC1CCN1CCN(Cc2ccc3c(c2)OCO3)CC1 (centres undefined) | inactive |
| COc1ccc(/C=C2\SC(=O)NC2=S)cc1OC | inactive |
| CCOc1cccc(CNc2ccc(O)cc2)c1OCc1ccccc1Cl | inactive |
| O=C(NCc1ccccc1)C(=O)Nc1nc(C23CC4CC(CC(C4)C2)C3)cs1 | inactive |
| COc1ccc(OC)c(Nc2ccc(C(=O)O)cc2[N+](=O)[O-])c1 | inactive |
| Fc1ccc(/C=C2\CCCC3=C2NC(=S)NC3c2ccc(F)cc2)cc1 (centres undefined) | inactive |
| Fc1ccc(C2=Nc3cccc4cccc(c34)N2)cc1 | inactive |
| CCOC(=O)c1cc2c(=O)n3ccccc3nc2n(Cc2ccco2)c1=NC(=O)c1ccccc1OC | inactive |
| O=C(O)c1ccc(NC2=C/C(=N/S(=O)(=O)c3ccccc3)c3ccccc3C2=O)cc1 | inactive |
| COCCNC(=O)CN1CCC(NC(=O)Nc2ccccc2)CC1 | inactive |
| O=C(NCCc1ccccc1)c1ccc2nc(-c3ccco3)c(-c3ccco3)nc2c1 | inactive |
| COc1cc(NC(=O)c2ccc3c(c2)OCO3)ccc1NC(=O)c1ccco1 | inactive |
| O=C1CCc2cc(S(=O)(=O)NCCCC(=O)N3CCN(Cc4ccc5c(c4)OCO5)CC3)ccc2N1 | inactive |
| C/C(=N/NC(=O)c1cc(O)c(O)c(O)c1)c1ccc([N+](=O)[O-])cc1 | inactive |
| CCCCOc1ccc(Cc2c(Cl)nc(SC)nc2N2CCOCC2)cc1 | inactive |
| CCOC(=O)C1CCN(C(=O)Nc2ccc3nc(-c4ccco4)c(-c4ccco4)nc3c2)CC1 | inactive |
| Cc1ccc(-c2n[nH]c(=S)n2-c2ccccc2)cc1 | inactive |
| COc1ccccc1-n1c(SCC(=O)N2CCc3ccccc32)nc2c(c1=O)SCC2 | inactive |
| O=C1c2ccccc2-c2onc3ccc(N4CCCC4)c1c23 | inactive |
| CC1CCN(C2(O)C(=O)Nc3ccc(Br)cc32)CC1 (centres undefined) | inactive |
| COc1ccc(/C=C/C(=O)c2cc(Br)ccc(=O)c2O)cc1 | inactive |
| CN(C)C(Cc1ccccc1)C(=O)c1cccs1 (centres undefined) | inactive |
| CCC(CC)C(=O)Nc1cccc(S(=O)(=O)c2cccc(NC(=O)C(CC)CC)c2)c1 | inactive |
